Source: patent US20250171437A1 (Agios Pharmaceuticals,Inc., priority 2022, published 2025)

What follows are molecules tested against T1, human PAH with the R408W mutation (A375 R408W cells) (Homo sapiens, UniProt P00439, R408W) (assay: Cell Based Phenylalanine Flux Assay). Conditions: A375 R408W cells; 24 hrs with compound, then 20 μM sepiapterin and 800 μM 13C9,15N-Phenylalanine for 4 hours; 13C-Tyrosine by LC-MS; average where tested multiple times.
T1 construct: expressed in transfected cells
T1 sequence (P00439 1-452 R408W): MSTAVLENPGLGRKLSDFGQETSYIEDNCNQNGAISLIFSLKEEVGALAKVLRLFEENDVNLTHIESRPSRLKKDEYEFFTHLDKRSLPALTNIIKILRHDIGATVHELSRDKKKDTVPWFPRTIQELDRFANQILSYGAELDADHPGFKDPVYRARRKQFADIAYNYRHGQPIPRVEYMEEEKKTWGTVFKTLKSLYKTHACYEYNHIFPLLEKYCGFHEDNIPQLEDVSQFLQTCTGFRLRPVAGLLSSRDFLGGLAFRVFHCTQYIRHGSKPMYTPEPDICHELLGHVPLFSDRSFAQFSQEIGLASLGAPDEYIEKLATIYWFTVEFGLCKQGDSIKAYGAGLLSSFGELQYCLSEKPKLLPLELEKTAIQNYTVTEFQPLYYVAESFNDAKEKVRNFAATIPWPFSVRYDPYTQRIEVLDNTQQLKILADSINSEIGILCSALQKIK
Outline: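 A375 cells stably expressing lentiviral human PAH R408W were treated with compounds (10-point 2-fold dilutions, 0.5% DMSO, duplicate) for 24 h at 37 °C. Then 20 μM sepiapterin and 800 μM 13C9,15N-Phe were added for 4 h; media 13C-Tyr was measured by LC-MS to give AC50.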

| Compound | AC50 [nM] |
| --- | --- |
| Cc1ccc2oc([C@H]3c4nc[nH]c4CCN3C(=O)c3oc(C(C)(C)O)nc3Br)nc2c1 [Example 408, (R)-(4-bromo-2-(2-hydroxypropan-2-yl)oxazol-5-yl)(4-(5-methylbenzo[d]oxazol-2-yl)-6,7-dihydro-1H-imidazo[4,5-c]pyridin-5(4H)-yl)methanone] | 500 to 1000 |
| O=C(c1ocnc1C(F)F)N1CCc2[nH]cnc2[C@H]1c1nc2c(Cl)cccc2o1 [Example 437, [(4S)-4-(4-chloro-1,3-benzoxazol-2-yl)-1,4,6,7-tetrahydroimidazo[4,5-c]pyridin-5-yl]-[4-(difluoromethyl)oxazol-5-yl]methanone] | ≤ 500 |
| Cn1cncc1-c1nc(C(F)F)c(C(=O)N2CCc3[nH]cnc3[C@@H]2c2nc3ccccc3o2)o1 [Example 763, (R)-(4-(benzo[d]oxazol-2-yl)-6,7-dihydro-1H-imidazo[4,5-c]pyridin-5(4H)-yl)(4-(difluoromethyl)-2-(1-methyl-1H-imidazol-5-yl)oxazol-5-yl)methanone] | 1000 to 5000 |
| O=C(c1ocnc1C1CC1)N1CCc2[nH]cnc2[C@@H]1c1nc2cc(F)ccc2o1 [Example 42, (R)-(4-cyclopropyloxazol-5-yl)(4-(5-fluorobenzo[d]oxazol-2-yl)-6,7-dihydro-1H-imidazo[4,5-c]pyridin-5(4H)-yl)methanone] | 1000 to 5000 |
| Cn1cc(-c2nnc(C(=O)N3CCc4[nH]cnc4[C@H]3c3nc4cccc(C(F)(F)F)c4o3)o2)cn1 [Example 830, (S)-(5-(1-methyl-1H-pyrazol-4-yl)-1,3,4-oxadiazol-2-yl)(4-(7-(trifluoromethyl)benzo[d]oxazol-2-yl)-6,7-dihydro-1H-imidazo[4,5-c]pyridin-5(4H)-yl)methanone] | 500 to 1000 |
| O=C(c1nnc(-c2cnccn2)o1)N1CCc2[nH]cnc2[C@@H]1c1nc2cc(F)ccc2o1 [Example 627, (R)-(4-(5-fluorobenzo[d]oxazol-2-yl)-6,7-dihydro-1H-imidazo[4,5-c]pyridin-5(4H)-yl)(5-(pyrazin-2-yl)-1,3,4-oxadiazol-2-yl)methanone] | 1000 to 5000 |
| O=C(c1ccnn1C(F)F)N1CCc2[nH]cnc2[C@@H]1c1nc2cc(F)ccc2o1 [Example 94, (R)-(1-(difluoromethyl)-1H-pyrazol-5-yl)(4-(5-fluorobenzo[d]oxazol-2-yl)-6,7-dihydro-1H-imidazo[4,5-c]pyridin-5(4H)-yl)methanone] | 1000 to 5000 |
| Cc1cc(C(=O)N2CCc3[nH]cnc3[C@@H]2c2nc3cccc(F)c3o2)n(C)n1 [Example 770, (R)-(1,3-dimethyl-1H-pyrazol-5-yl)(4-(7-fluorobenzo[d]oxazol-2-yl)-6,7-dihydro-1H-imidazo[4,5-c]pyridin-5(4H)-yl)methanone] | 1000 to 5000 |
| CN(C)Cc1cn2ncc(C(=O)N3CCc4[nH]cnc4[C@H]3c3nc4cc(F)ccc4o3)c2cc1Cl [Example 203, (S)-(5-chloro-6-((dimethylamino)methyl)pyrazolo[1,5-a]pyridin-3-yl)(4-(5-fluorobenzo[d]oxazol-2-yl)-6,7-dihydro-1H-imidazo[4,5-c]pyridin-5(4H)-yl)methanonee] | 500 to 1000 |
| O=C(c1oc(C2(O)CC2)nc1C(F)F)N1CCc2[nH]cnc2[C@@H]1c1nc2c(F)cccc2o1 [Example 216, (R)-(4-(difluoromethyl)-2-(1-hydroxycyclopropyl)oxazol-5-yl)(4-(4-fluorobenzo[d]oxazol-2-yl)-6,7-dihydro-1H-imidazo[4,5-c]pyridin-5(4H)-yl)methanone] | 1000 to 5000 |
| CC1CN(C(=O)c2ocnc2C(F)F)[C@@H](c2nc3cccc(F)c3o2)c2nc[nH]c21 (single isomer, unassigned) [Example 806] | 1000 to 5000 |
| Cc1cccc2nc([C@H]3c4nc[nH]c4CCN3C(=O)c3cnco3)oc12 [Example 612, (R)-(4-(7-methylbenzo[d]oxazol-2-yl)-6,7-dihydro-1H-imidazo[4,5-c]pyridin-5(4H)-yl)(oxazol-5-yl)methanone] | 1000 to 5000 |
| Cc1ccc2oc([C@H]3c4nc[nH]c4CCN3C(=O)c3nnc(-c4cnn(C(F)F)c4)o3)nc2c1 [Example 674, (R)-(5-(1-(difluoromethyl)-1H-pyrazol-4-yl)-1,3,4-oxadiazol-2-yl)(4-(5-methylbenzo[d]oxazol-2-yl)-6,7-dihydro-1H-imidazo[4,5-c]pyridin-5(4H)-yl)methanone] | 1000 to 5000 |
| CC(C)(O)c1nc(C(F)F)c(C(=O)N2CCc3[nH]cnc3[C@H]2c2nc3c(F)ccc(F)c3o2)o1 [Example 345, (S)-(4-(4,7-difluorobenzo[d]oxazol-2-yl)-6,7-dihydro-1H-imidazo[4,5-c]pyridin-5(4H)-yl)(4-(difluoromethyl)-2-(2-hydroxypropan-2-yl)oxazol-5-yl)methanone] | ≤ 500 |
| CN1CCN(c2ccc3c(C(=O)N4CCc5[nH]cnc5[C@@H]4c4nc5c(F)cccc5o4)cnn3c2)CC1 [Example 476, (R)-(4-(4-fluorobenzo[d]oxazol-2-yl)-6,7-dihydro-1H-imidazo[4,5-c]pyridin-5(4H)-yl)(6-(4-methylpiperazin-1-yl)pyrazolo[1,5-a]pyridin-3-yl)methanone] | 1000 to 5000 |
| Nc1cn2ncc(C(=O)N3CCc4[nH]cnc4[C@H]3c3nc4cc(F)ccc4o3)c2cc1Cl [Example 177, (S)-(6-amino-5-chloropyrazolo[1,5-a]pyridin-3-yl)(4-(5-fluorobenzo[d]oxazol-2-yl)-6,7-dihydro-1H-imidazo[4,5-c]pyridin-5(4H)-yl)methanone] | ≤ 500 |
| COc1ccc(-c2nnc(C(=O)N3CCc4[nH]cnc4[C@H]3c3nc4cc(C)ccc4o3)o2)nc1 [Example 677, (S)-(5-(5-methoxypyridin-2-yl)-1,3,4-oxadiazol-2-yl)(4-(5-methylbenzo[d]oxazol-2-yl)-6,7-dihydro-1H-imidazo[4,5-c]pyridin-5(4H)-yl)methanone] | ≤ 500 |
| CC(C)(CO)c1nc(C(F)F)c(C(=O)N2CCc3[nH]cnc3[C@H]2c2nc3cc(F)ccc3o2)o1 [Example 824, (S)-(4-(difluoromethyl)-2-(1-hydroxy-2-methylpropan-2-yl)oxazol-5-yl)(4-(5-fluorobenzo[d]oxazol-2-yl)-6,7-dihydro-1H-imidazo[4,5-c]pyridin-5(4H)-yl)methanone] | ≤ 500 |
| Cc1cc(C(=O)N2CCc3[nH]cnc3[C@H]2c2nc3ccccc3o2)n(C)n1 [Example 779, (S)-(4-(benzo[d]oxazol-2-yl)-6,7-dihydro-1H-imidazo[4,5-c]pyridin-5(4H)-yl)(1,3-dimethyl-1H-pyrazol-5-yl)methanone] | 1000 to 5000 |

Same assay, conditions: A375 cells expressing R408W PAH; 24 hrs with compound, then 20 μM sepiapterin and 800 μM 13C9,15N-Phenylalanine for 4 hours; 13C-Tyrosine by LC-MS; average where tested multiple times

| Compound | AC50 [nM] |
| --- | --- |
| Cn1nc(Cl)nc1C(=O)N1CCc2[nH]cnc2C1c1nc2cc(F)ccc2o1 (stereo not drawn) | 1000 to 5000 |
| Cn1ncnc1C(=O)N1CCc2[nH]cnc2C1c1nc2c(F)cccc2o1 (stereo not drawn) | 1000 to 5000 |
| O=C(c1cnn2cc(CN3CC(F)C3)ccc12)N1CCc2[nH]cnc2C1c1nc2cc(F)ccc2o1 (stereo not drawn) | 1000 to 5000 |
| CN1CCN(c2nnc(C(=O)N3CCc4[nH]cnc4C3c3nc4cc(F)ccc4o3)o2)CC1 (stereo not drawn) | ≥ 5000 |
| Cc1nc(C(C)O)oc1C(=O)N1CCc2[nH]cnc2C1c1nc2ccc(F)cc2o1 (stereo not drawn) | 1000 to 5000 |
| O=C(c1cnn2cc(CCN3CCOCC3)ccc12)N1CCc2[nH]cnc2C1c1nc2cc(F)ccc2o1 (stereo not drawn) | ≥ 5000 |
| Cc1cccc2nc(C3c4nc[nH]c4CCN3C(=O)c3cc(C(C)(C)C)nn3C)oc12 (stereo not drawn) | 1000 to 5000 |
| COCc1ccc2c(C(=O)N3CCc4[nH]cnc4C3c3nc4ccc(F)cc4o3)cnn2c1 (stereo not drawn) | ≥ 5000 |
